In series [1] the target is T1, Human Neuropeptide Y2 Receptor (Homo sapiens, UniProt P49146).
T1 construct: purchased CHEMICON HTS066M
T1 sequence (P49146 1-381): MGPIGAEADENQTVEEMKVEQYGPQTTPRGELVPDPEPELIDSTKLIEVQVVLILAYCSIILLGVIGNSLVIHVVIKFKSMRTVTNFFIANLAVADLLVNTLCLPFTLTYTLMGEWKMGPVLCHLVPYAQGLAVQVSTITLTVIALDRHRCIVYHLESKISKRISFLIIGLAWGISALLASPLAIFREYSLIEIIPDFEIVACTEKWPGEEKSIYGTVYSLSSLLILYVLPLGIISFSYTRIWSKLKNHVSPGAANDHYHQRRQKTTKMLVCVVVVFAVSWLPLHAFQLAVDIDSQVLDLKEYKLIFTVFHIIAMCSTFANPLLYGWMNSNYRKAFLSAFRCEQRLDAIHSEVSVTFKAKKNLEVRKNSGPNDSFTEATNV
The series is described as follows: Radioligand binding competition assay (RLB). As to conditions: Table 3, 125I-PYY(1-36) competition; read-out: Ki. A digest of the protocol:
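Competition binding used membranes expressing the receptor (0.5 μg protein/well) in 50 mM HEPES, 5 mM MgCl2, 1 mM CaCl2, pH 7.4 with 0.2% ovalbumin, incubated 2 h at room temperature with shaking. Bound radioligand was collected by filtration onto PEI-soaked GF/C filters and counted; IC50 from nonlinear sigmoidal fits.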

Another series can be described thus: Solubility determination. To be noted: for Sol6: pH 6; for Sol7: pH 7. A digest of the protocol:
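Sample: TFA-salt peptide at 10 mg/ml target in 0.1 M Na diphosphate, pH 6.4 or 7.0, shaken 2 h RT, filtered, diluted to 1 mg/ml.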

Data on five compounds can be found in patent US12391737B2, “Soluble NPY2 receptor agonists” (Boehringer Ingelheim International GmbH, priority 2020, dated 2025).

Regarding `CC[C@H](C)[C@H](NC(=O)[C@H](CCC(=O)O)NC(=O)[C@H](CCC(=O)O)NC(=O)[C@@H]1CCCN1C(=O)[C@H](CCC(N)=O)NC(=O)[C@H](C)NC(=O)[C@H](CC(=O)O)NC(=O)[C@H](CCC(=O)O)NC(=O)[C@H](CCC(=O)O)NC(=O)[C@@H]1CCCN1C(=O)[C@H](CCCCNC(=O)CCCCCNC(=O)CC[C@H](NC(=O)CCCCCCCCCCCCCCCCC(=O)O)C(=O)O)NC(=O)[C@H](CCC(=O)O)NC(=O)[C@@H]1CCCN1C(=O)[C@H](C)NC(=O)CC(C)C)C(=O)N[C@@H](CCC(N)=O)C(=O)N[C@@H](CCCNC(=N)N)C(=O)N[C@@H](Cc1ccc(O)cc1)C(=O)N[C@@H](Cc1ccc(O)cc1)C(=O)N[C@H](C(=O)N[C@@H](CO)C(=O)N[C@@H](CC(C)C)C(=O)N[C@@H](CCCNC(=N)N)C(=O)N[C@@H](Cc1c[nH]cn1)C(=O)N[C@@H](Cc1ccc(O)cc1)C(=O)N[C@@H](Cc1ccc(O)cc1)C(=O)N[C@@H](CC(N)=O)C(=O)N[C@@H](Cc1c[nH]c2ccccc12)C(=O)N[C@@H](CC(C)C)C(=O)N[C@H](C(=O)N[C@@H](CCCNC(=N)N)C(=O)N[C@@H](CCC(N)=O)C(=O)N[C@@H](CCCNC(=N)N)C(=O)N[C@@H](Cc1ccc(O)cc1)C(N)=O)[C@@H](C)O)C(C)C` [Compound 81, N{alpha-4}-(3-methylbutanoyl)-N{epsilon-7}-(6-[(4S)-4-carboxy-4-(17-carboxyheptadecanamido)butanamido]hexanoyl)-[4A,7K,9E,13Q,17I,18Q,22V,28Y,30W,31L]-hPYY(4-36)], the Ki in series [1] was found to be 2.65 nM. Besides, in the series “Solubility determination”, the “Sol6” value was found to be 8.9 mg/mL and the “Sol7” value is 8.9 mg/mL.

In the case of `CC[C@H](C)[C@H](NC(=O)[C@H](CCC(=O)O)NC(=O)[C@H](CCC(=O)O)NC(=O)[C@@H]1CCCN1C(=O)[C@H](CO)NC(=O)[C@H](C)NC(=O)[C@H](CC(=O)O)NC(=O)[C@H](CCC(=O)O)NC(=O)[C@@H]1CCCN1C(=O)[C@@H]1CCCN1C(=O)[C@H](CCCCNC(=O)CCCCCNC(=O)CC[C@H](NC(=O)CCCCCCCCCCCCCCCCC(=O)O)C(=O)O)NC(=O)[C@H](C)NC(=O)[C@@H]1CCCN1C(=O)[C@H](C)NC(=O)CC(C)C)C(=O)N[C@@H](CCC(N)=O)C(=O)N[C@@H](CCCNC(=N)N)C(=O)N[C@@H](Cc1ccc(O)cc1)C(=O)N[C@@H](Cc1ccc(O)cc1)C(=O)N[C@H](C(=O)N[C@@H](CO)C(=O)N[C@@H](CC(C)C)C(=O)N[C@@H](CCCNC(=N)N)C(=O)N[C@@H](Cc1c[nH]cn1)C(=O)N[C@@H](Cc1ccc(O)cc1)C(=O)N[C@@H](Cc1ccc(O)cc1)C(=O)N[C@@H](CC(N)=O)C(=O)N[C@@H](Cc1c[nH]c2ccccc12)C(=O)N[C@@H](CC(C)C)C(=O)N[C@H](C(=O)N[C@@H](CCCNC(=N)N)C(=O)N[C@@H](CCC(N)=O)C(=O)N[C@@H](CCCNC(=N)N)C(=O)N[C@@H](Cc1ccc(O)cc1)C(N)=O)[C@@H](C)O)C(C)C` [Compound 82, N{alpha-4}-(3-methylbutanoyl)-N{epsilon-7}-(6-[(4S)-4-carboxy-4-(17-carboxyheptadecanamido)butanamido]hexanoyl)-[4A,6A,7K,9P,17I,18Q,22V,28Y,30W,31L]-hPYY(4-36)], the inhibitory constant (Ki) in series [1] was 0.58 nM. Also, in “Solubility determination”, the “Sol6” value came out at 0.0 mg/mL and the “Sol7” value was found to be 9.0 mg/mL.

In the case of `CC(C)CC(=O)N[C@@H](C)C(=O)N1CCC[C@H]1C(=O)N[C@@H](CCC(=O)O)C(=O)N[C@@H](CCCCNC(=O)CCCCCNC(=O)CC[C@H](NC(=O)CCCCCCCCCCCCCCCCC(=O)O)C(=O)O)C(=O)N1CCC[C@H]1C(=O)N[C@@H](CCC(=O)O)C(=O)N[C@@H](CCC(=O)O)C(=O)N[C@@H](CC(=O)O)C(=O)N[C@@H](C)C(=O)N[C@H](C(=O)N[C@@H](CO)C(=O)N[C@@H](CCC(=O)O)C(=O)N[C@@H](CCC(=O)O)C(=O)N[C@@H](CC(C)C)C(=O)N[C@@H](CCC(N)=O)C(=O)N[C@@H](CCCNC(=N)N)C(=O)N[C@@H](Cc1ccc(O)cc1)C(=O)N[C@@H](Cc1ccc(O)cc1)C(=O)N[C@H](C(=O)N[C@@H](CO)C(=O)N[C@@H](CC(C)C)C(=O)N[C@@H](CCCNC(=N)N)C(=O)N[C@@H](Cc1c[nH]cn1)C(=O)N[C@@H](Cc1ccc(O)cc1)C(=O)N[C@@H](Cc1ccc(O)cc1)C(=O)N[C@@H](CC(N)=O)C(=O)N[C@@H](Cc1c[nH]c2ccccc12)C(=O)N[C@@H](CC(C)C)C(=O)N[C@H](C(=O)N[C@@H](CCCNC(=N)N)C(=O)N[C@@H](CCC(N)=O)C(=O)N[C@@H](CCCNC(=N)N)C(=O)N[C@@H](Cc1ccc(O)cc1)C(N)=O)[C@@H](C)O)C(C)C)[C@@H](C)O` [Compound 83, N{alpha-4}-(3-methylbutanoyl)-N{epsilon-7}-(6-[(4S)-4-carboxy-4-(17-carboxyheptadecanamido)butanamido]hexanoyl)-[4A,7K,9E,13T,14S,18Q,22V,28Y,30W,31L]-hPYY(4-36)], in series [1], the inhibition constant (Ki) came out at 6.91 nM. Moreover, in “Solubility determination”, the “Sol6” value was determined as 10.0 mg/mL and the “Sol7” value was 10.0 mg/mL.

Turning to `CC(C)CC(=O)N[C@@H](C)C(=O)N1CCC[C@H]1C(=O)N[C@@H](C)C(=O)N[C@@H](CCCCNC(=O)CCCCCNC(=O)CC[C@H](NC(=O)CCCCCCCCCCCCCCCCC(=O)O)C(=O)O)C(=O)N1CCC[C@H]1C(=O)N[C@@H](CCC(=O)O)C(=O)N[C@@H](CCC(=O)O)C(=O)N[C@@H](CC(=O)O)C(=O)N[C@@H](C)C(=O)N[C@@H](CO)C(=O)N1CCC[C@H]1C(=O)N[C@@H](CCC(=O)O)C(=O)N[C@@H](CCC(=O)O)C(=O)N[C@H](C(=O)N[C@@H](CCC(N)=O)C(=O)N[C@@H](CCCNC(=N)N)C(=O)N[C@@H](Cc1ccc(O)cc1)C(=O)N[C@@H](Cc1ccc(O)cc1)C(=O)N[C@H](C(=O)N[C@@H](CO)C(=O)N[C@@H](CC(C)C)C(=O)N[C@@H](CCCNC(=N)N)C(=O)N[C@@H](Cc1c[nH]cn1)C(=O)N[C@@H](Cc1ccc(O)cc1)C(=O)N[C@@H](Cc1ccc(O)cc1)C(=O)N[C@@H](CC(N)=O)C(=O)N[C@@H](Cc1c[nH]c2ccccc12)C(=O)N[C@@H](CC(C)C)C(=O)N[C@H](C(=O)N[C@@H](CCCNC(=N)N)C(=O)N[C@@H](CCC(N)=O)C(=O)N[C@@H](CCCNC(=N)N)C(=O)N[C@@H](Cc1ccc(O)cc1)C(N)=O)[C@@H](C)O)C(C)C)[C@@H](C)O` [Compound 85, N{alpha-4}-(3-methylbutanoyl)-N{epsilon-7}-(6-[(4S)-4-carboxy-4-(17-carboxyheptadecanamido)butanamido]hexanoyl)-[4A,6A,7K,9E,17T,18Q,22V,28Y,30W,31L]-hPYY(4-36)], the Ki in series [1] was 1.61 nM. In the series “Solubility determination”, the “Sol6” value was found to be 8.6 mg/mL and the “Sol7” value was determined as 9.1 mg/mL.

As to `CC[C@H](C)[C@H](NC(=O)[C@H](CCC(=O)O)NC(=O)[C@H](CCC(=O)O)NC(=O)[C@@H]1CCCN1C(=O)[C@@H](NC(=O)[C@H](C)NC(=O)[C@H](CC(=O)O)NC(=O)[C@H](CCC(=O)O)NC(=O)[C@H](CCC(=O)O)NC(=O)[C@@H]1CCCN1C(=O)[C@H](CCCCNC(=O)CCCCCNC(=O)CC[C@H](NC(=O)CCCCCCCCCCCCCCCCC(=O)O)C(=O)O)NC(=O)[C@H](CCC(=O)O)NC(=O)[C@@H]1CCCN1C(=O)[C@H](C)NC(=O)CC(C)C)[C@@H](C)O)C(=O)N[C@@H](CCC(N)=O)C(=O)N[C@@H](CCCNC(=N)N)C(=O)N[C@@H](Cc1ccc(O)cc1)C(=O)N[C@@H](Cc1ccc(O)cc1)C(=O)N[C@@H](C)C(=O)N[C@@H](CO)C(=O)N[C@@H](CC(C)C)C(=O)N[C@@H](CCCNC(=N)N)C(=O)N[C@@H](Cc1c[nH]cn1)C(=O)N[C@@H](Cc1ccc(O)cc1)C(=O)N[C@@H](Cc1ccc(O)cc1)C(=O)N[C@@H](CC(N)=O)C(=O)N[C@@H](Cc1c[nH]c2ccccc12)C(=O)N[C@@H](CC(C)C)C(=O)N[C@H](C(=O)N[C@@H](CCCNC(=N)N)C(=O)N[C@@H](CCC(N)=O)C(=O)N[C@@H](CCCNC(=N)N)C(=O)N[C@@H](Cc1ccc(O)cc1)C(N)=O)[C@@H](C)O` [Compound 86, N{alpha-4}-(3-methylbutanoyl)-N{epsilon-7}-(6-[(4S)-4-carboxy-4-(17-carboxyheptadecanamido)butanamido]hexanoyl)-[4A,7K,9E,13T,17I,18Q,28Y,30W,31L]-hPYY(4-36)], the inhibition constant Ki in series [1] came to 4.33 nM. In the series “Solubility determination”, the “Sol6” value was more than 10.0 mg/mL and the “Sol7” value was more than 10.0 mg/mL.
